For 86 compounds, melting point results are on record in a melting point compilation (Tetko et al.; mined from patent text by program, amines drawn as free bases though some values may be those of a salt).

With `CCOC(=O)CC(C(=O)c1ccc(OC)cc1)c1ccc(OC)c(F)c1` (stereo unspecified), the melting point lay in the range of 117 to 118 °C. For `NC(=O)c1ccc2nc(C(=O)NCc3ccnc(OCC4CCOC4)c3)[nH]c(=O)c2c1` (stereo unspecified) the value was 237 to 239 °C.

Compound `O=C(Nc1ccc(N2CCN(C(=O)Nc3ccc(OCCO)cc3C(F)(F)F)CC2)cc1)Nc1nc(C2CC2)cs1` displayed a melting point of 120 to 123 °C. The value for `Nc1cc(Br)cc2cccnc12` was 142 to 145 °C; that for `CC1CCCC(C)N1S(=O)(=O)N[C@@H](Cc1ccc(NC(=O)c2c(Cl)cncc2Cl)cc1)C(=O)O` (stereo partly specified) was 162 °C. `CC(C)(Sc1nc(N)cc(Cl)n1)c1ccccn1` gave a melting point of 183 to 184 °C. For `CC[N+](CC)(CC)C1CC(=O)N1C(C(=O)OCc1ccc([N+](=O)[O-])cc1)=C([O-])CCOC(=O)c1ccccc1` (stereo unspecified) the value was 133 to 134 °C; for `CC1=C(C)C(=O)C(C(CCCCCC(=O)NCC(=O)O)c2ccccc2)=C(C)C1=O` (stereo unspecified), 162 to 164 °C. For the compound `O=C1c2ccccc2C(=O)c2sc(-c3ccncc3)nc21`, the melting point was more than 260 °C.

For `Cc1cc(SCc2ccc(OCc3ccc(F)cc3)cc2)ccc1OCC(=O)O`, the melting point is 154 to 155 °C. For `COC[C@H](O)CNc1ccc2cc(OCc3ccccc3)ccc2c1` the value was 105 to 106 °C; for `COc1cc2c(cc1Nc1ncc(Cl)c(N[C@@H]3CCCC[C@H]3NS(C)(=O)=O)n1)N(C)CCN(C[C@@H](O)C(F)(F)F)C2`, 63 to 66 °C; for `Cc1noc(NS(=O)(=O)c2ccccc2-c2ccc(-c3cccnc3)cc2)c1C`, 96 to 106 °C.

In turn, `COc1ccc2c(=O)c(-c3ccccc3)c(SCc3cccnc3)oc2c1` gave a melting point of 152 °C. The value for `Nc1ncc2c(n1)-c1ccc(-c3ccccc3)cc1C(c1ccc(Cl)c(Cl)c1)C2` (stereo unspecified) was 186 to 187 °C. The value for `OCCNC(=S)NC(=Nc1cccc2ccccc12)c1ccccc1` was 131 to 132 °C; that for `Nc1nc[nH]c1-c1n[nH]c(-c2ccc(-c3ccccc3)cc2)n1` was 230 °C; that for `CCC[C@@](CCc1ccccc1)(CC(=O)OCOc1ccc(-c2ccccc2)cc1)OCOc1ccc(-c2ccccc2)cc1` was 104 to 106 °C.

As for `CC(C)(C)OC(=O)NC(=N)c1ccc(C(=O)NCCC(=O)OCc2ccccc2)cc1`, the melting point is 127 to 128 °C.

The compound `CCc1c(-c2ccc(OCc3ccccc3)cc2)c2cc(COC)c3cccc1n32` returned a melting point of 111 to 113 °C. The value for `C=CCCN1C(C)=C(C(=O)OC)C(c2ccccc2)C(C(=O)OC)=C1C` was 108 to 110 °C. For `Cc1ccc(C=CCN2CCc3nc(N)sc3CC2)cn1` the value was 180 to 184 °C. Regarding `CC1(C)CC2(CC(C)(C)c3ccc(Oc4cccc([N+](=O)[O-])c4)cc32)c2cc(Oc3cccc([N+](=O)[O-])c3)ccc21`, the melting point is 174 to 175 °C. The value for `Cc1oc2cc(NC(=O)C(=O)O)ccc2c(=O)c1C` was 234 to 240 °C. For `COc1nc2cc(Cl)cc(C)c2nc1OC` the value was 94 to 96 °C. For `CCOC(=O)c1ccc(OCCOc2ccc(-c3onc(SC)c3C#N)cc2)cc1` the value was 162 to 164 °C; for `O=C1C=C(NC(=O)C(=O)c2cn(Cc3c(F)cccc3Cl)c3ccccc23)CO1`, more than 270 °C. Regarding `Cc1cc(O)cc(C)c1N`, the melting point was 190 to 191 °C. Compound `CCCc1ncc2cc(OC)nc(SC)n12` displayed a melting point of 98 to 100 °C. As to `CCNc1nc(C)c(-c2ccnc(Nc3cccc(S(=O)(=O)NCCO)c3)n2)s1`, the melting point is 124 to 125 °C. The value for `COC(=O)C1(C(F)CCCCOc2ccc(Cl)cc2)CO1` (stereo unspecified) was 76 to 78 °C; that for `CNc1nc(-c2cccnc2)nc(SC)c1C(=O)Nc1ccc(OC)cc1` was 184 to 197 °C; that for `CCN(CC)CCOc1ccc2cc3ccc(OCCN(CC)CC)c(Br)c3nc2c1Br` was 66 to 68 °C.

With `CCCCCC(CC(=O)Nc1cc(C(N)=O)ccc1C(C)(C)C)c1cccc(OC)c1O` (stereo unspecified), the melting point was in the range of 118 to 121 °C. For `CCc1c2nc(-c3cc(S(C)(=O)=O)ccc3OCC(C)C)[nH]c(=O)c2nn1C1CCN(C)CC1` the value was 292 to 295 °C; for `CCOC(=O)c1c(C(=O)Cc2c(CCNCCc3ccccc3)cc3c(c2OC)OCO3)ccc(OC)c1OC`, 102 to 104 °C; for `O=C(O)/C=C/C(=O)/C=C/c1ccc(F)cc1`, 160 to 162 °C. For `O=C1CCc2cc(Cl)cc(Cl)c2C1` the value was 90 to 92 °C; for `C=CCNC(=O)C1=Cc2c1ccc(OC)c2OC`, 98 to 99 °C; for `c1ccc(N(c2ccccc2)c2ccc(N(c3ccccc3)c3ccccc3)cc2)cc1`, 200 to 202 °C.

`Cc1ccc(C2CC(n3ccnc3)c3ccccc3N2)cc1` (stereo unspecified) registered a melting point of 152 to 154 °C. The value for `CC1(C)CC(=O)c2cc(C#N)c(N3CCCCC3)nc2C1` was 99 to 100 °C. For `COc1nc(C)nc(NC(=O)NS(=O)(=O)c2cccnc2Oc2ccccc2)n1` the value was 176 to 178 °C; for `COc1cc(Nc2c(C#N)cnc3cc4cc(OC)c(OCCN5CCN(C)CC5)cc4cc23)c(Cl)cc1C`, 220 to 227 °C; for `CC(=O)Nc1ccc(Nc2nccc(-c3sc(C)nc3C)n2)cc1`, 219 to 220 °C. The value for `O=C(C=CC=C(c1ccc(Cl)cc1)c1ccc(Cl)cc1)Nc1ccc(C(=O)O)cc1` was 273 to 276 °C. Regarding `N#Cc1ccc(Oc2ccccc2)cc1Oc1ccccc1`, the melting point is 85 to 86 °C. `CCCCc1ccc(-c2ccc(CCc3cc(F)cc(F)c3)cc2)cc1`: the melting point was determined as 59 °C. For `Oc1ccc2c(c1)C(C(Cl)(Cl)Cl)OC(C(Cl)(Cl)Cl)O2` (stereo unspecified) the value was 167 to 169 °C.

On to `CCCc1c(CSc2nnc(SCCCS(=O)CC(=O)O)s2)ccc(C(C)=O)c1O` (stereo unspecified), for which the melting point was 107 to 110 °C. The value for `Cc1cc(C(C)(C)C)c(O)c(P(=O)(c2ccccc2)C2c3ccccc3-c3ccccc32)c1` (stereo unspecified) was 237 to 240 °C; that for `COc1ccc(-c2nc(NC(C)=O)sc2-c2ccnc(NC(C)=O)c2)cc1` was 262 to 264 °C; that for `CC(C)(C)COc1ccc(N(CC(=O)O)C(=O)c2cnn(-c3ccc(F)cc3)c2)cc1C#N` was 274 to 275 °C. Compound `Cn1c(=O)sc2ccc(C(c3ccc(C#N)cc3)n3cncn3)cc21` (stereo unspecified) displayed a melting point of 122 to 125 °C. For `CCOC(=O)C1(C(=O)OCC)CC(c2ccccc2[N+](=O)[O-])C(O)N1C=O` (stereo unspecified) the value was 109 to 111 °C. For `Cn1c(/C=C/[N+](=O)[O-])cc2cccc(F)c21` the value was 153 to 156 °C; for `COC(=O)COc1cccc(CCN(C)CCCC(C#N)(c2ccc(OC)c(OC)c2)C(C)C)c1` (stereo unspecified), 96 to 100 °C. For `O=C1CN(C(=O)c2ccccc2)c2cc(F)ccc2N1` the value was 226 to 227 °C; for `CC(=O)Oc1ccc(C(=O)N2CCN(CC(C)(C)S)CC2)cc1`, 121 °C. Consider `Cc1c(OCC(F)(F)F)ccnc1CSc1nc2cc(OC(F)F)ccc2n1N`, for which the melting point was in the range of 179 to 180 °C. The value for `Fc1cc(F)cc(NC(=S)c2ccccn2)c1` was 140 to 142 °C; that for `O=c1c2cccnc2n(-c2cccc([N+](=O)[O-])c2)c(=O)n1CC(F)(F)F` was 228 to 229 °C; that for `O=C(O)CCn1nc(-c2c(-c3ccccc3)nn3ccccc23)ccc1=O` was 156 °C. The value for `COc1oc2cccc(-c3ccc(O)cc3)c2c1C(C)=O` was 222 °C. The value for `O=C(OCn1c(=O)[nH]cc(F)c1=O)c1cccnc1` was 179 to 180 °C; that for `C=CC(=O)Nc1c(C)cccc1C` was 144 to 145 °C. Consider `FC(F)(F)c1ccnc(Oc2ccc(CCNc3ncnc4nccnc34)cc2)c1`, for which the melting point lay in the range of 147 to 149 °C. For `COc1ccc(C(=O)NCCCCOc2ccc(-n3ccnc3)cc2)cc1` the value was 125 to 126 °C; for `CC1(c2ccccc2)OC(C=Cc2cccnc2)=CC1=O` (stereo unspecified), 106 to 108 °C.

Compound `CCOC(=O)CSc1nc(Cl)cc(NCc2ccc(F)cc2)n1` returned a melting point of 70 to 75 °C.

`COc1ccc(Nc2cncc(-c3cccc(Nc4ccccn4)c3)c2)cc1` gave a melting point of 161 to 165 °C. The value for `Nc1ccnc(SCCCCN2C(=O)c3ccccc3C2=O)n1` was 164 to 167 °C; that for `OCc1ccccc1NCc1cc2c(cc1O)CCCO2` was 141 to 142 °C; that for `CC(=O)OC1(N=NC2(OC(C)=O)CC(C)CC(C)(C)C2)CC(C)CC(C)(C)C1` (stereo unspecified) was 111 to 115 °C.

`CN(C)c1ccc(NC(=O)N(C[C@H]2CC[C@@H](CN(C(=O)Nc3ccc(N(C)C)cc3)C3CCCCCCC3)CC2)C2CCCCCCC2)cc1`: the melting point lay within 197 to 200 °C. The value for `NC(=O)N1Cc2ccccc2-c2ccccc2C1` was 212 to 214 °C. `CCOC(=O)c1cnc2cc(NC(C)=O)c(F)cc2c1O` came in with a melting point of 320 °C. For `CC(C)=C(C(=O)O)c1ccc(Cl)cc1`, the melting point is 144 to 145 °C. The value for `CC(=O)Nc1ccc2c(c1)c(C1=C(c3cn(C)c4ccccc34)C(=O)NC1=O)cn2C` was 276 to 279 °C; that for `CCCCCCCCCCCCc1cc(C=O)on1` was 53 to 54 °C. For `CCOP(=O)(NN=C(c1ccc(Cl)cc1)c1ccc(OS(C)(=O)=O)cc1)OCC` the value was 90 to 91 °C; for `CCC(c1cccc(Br)c1)c1c(O)c2ccccc2oc1=O` (stereo unspecified), 168 to 172 °C; for `Cn1cc(-c2ccc(Cl)c(C(F)(F)F)c2)c(=O)c(-c2cccs2)c1`, 166 to 168 °C. The value for `Cc1ccc2[nH]c(=O)c(C#N)c(N3CCN(C(=O)c4cccs4)CC3)c2c1` was 269 °C. Compound `c1ccc2c3c([nH]c2c1)C(c1ccc2c(c1)CCO2)NCC3` (stereo unspecified) registered a melting point of 98 to 99 °C. The value for `COc1ccccc1[C@@H]1O[C@@H](CC(=O)O)C(=O)N(CC(C)(C)C)c2ccc(Cl)cc21` was 179 to 183 °C.
